{"source": "paper PMC3835742", "about": "“Lack of Plasma Kallikrein-Kinin System Cascade in Teleosts” (PLoS ONE, 2013)", "key": {"eel": {"tested_on": "eel", "conditions": "compared with BK, ref [14]; cited from earlier work"}, "[1]": {"experiment": "Spiking of pooled plasma, Sep-Pak/HPLC extraction and RIA (recovery and integrity)", "design": "species or system Japanese eel", "conditions": "pooled eel plasma with inhibitor cocktail spiked to 300, 1000, 3000 fmol/mL, ir-BK profile by RIA", "protocol": "Juvenile, sexually immature Japanese eel (Anguilla japonica; 160 - 220 g), tilapia (Oreochromis niloticus; 50 - 100g), rainbow trout (Oncorhynchus mykiss; 100 - 200 g), and adult medaka of both sex (Oryzias latipes; 1.5 - 2.2 g) were kept in a freshwater recirculating aquarium system in the Atmosphere and Ocean Research Institute, the University of Tokyo. The water was maintained at 12 °C for trout, 18 °C for eel, 25 °C for tilapia, and 27 °C for medaka, and all animals were exposed to a 14/10 h light/dark cycle throughout the experiment. All animal experimental procedures were approved by the Animal Experiment Committee of the University of Tokyo. […]\nThe plasma samples were purified by Sep-Pak C18 cartridge, with equilibration buffer (100 mM Tris-HCl, 0.5 M NaCl, pH 7.4) for binding and absolute methanol for elution. The partially purified plasma was further resolved by a reverse-phase HPLC system (Tosoh PU-980, Tokyo) attached to a UV-absorbance detector (Tosoh, UV-970, Tokyo) and utilizing an analytical column (ODS 100S column, 4.6 mm I.D. x 25 cm, C-18, 5 μm particle size, Tosoh, Tokyo). […]\nTo test the degradation rate of [Arg^0]-BK in plasma in vitro, 3 blood samples with inhibitor cocktail were prepared. […] The immunoreactive (ir)-[Arg^0]-BK was measured using the newly established RIA. […]"}, "[2]": {"experiment": "Degradation rate of [Arg^0]-BK in plasma in vitro", "type": "in vitro ADME, Japanese eel", "conditions": "plasma with inhibitor cocktail (1,10-phenanthroline, potassium EDTA, aprotinin), spiked 3,000 fmol/mL, 25 °C, 0, 10 and 30 min, Sep-Pak extraction, RIA read-out, n = 3, Student t-test p > 0.05", "protocol": "Juvenile, sexually immature Japanese eel (Anguilla japonica; 160 - 220 g), tilapia (Oreochromis niloticus; 50 - 100g), rainbow trout (Oncorhynchus mykiss; 100 - 200 g), and adult medaka of both sex (Oryzias latipes; 1.5 - 2.2 g) were kept in a freshwater recirculating aquarium system in the Atmosphere and Ocean Research Institute, the University of Tokyo. The water was maintained at 12 °C for trout, 18 °C for eel, 25 °C for tilapia, and 27 °C for medaka, and all animals were exposed to a 14/10 h light/dark cycle throughout the experiment. All animal experimental procedures were approved by the Animal Experiment Committee of the University of Tokyo. Fish were anesthetized by 0.1% ethyl 3-aminobenzoate methanesulfonate (Sigma, St. Louis, MO) neutralized with sodium bicarbonate. […]\n(§1) To test the degradation rate of [Arg^0]-BK in plasma in vitro, 3 blood samples with inhibitor cocktail were prepared. […] The immunoreactive (ir)-[Arg^0]-BK was measured using the newly established RIA. […] The concentration of [Arg^0]-BK in the HPLC fractions were measured to determine the percentage recovery. Synthetic [Trp^5, Leu^8]-BK (BK) and [Arg^0, Trp^5, des-Leu^8, des-Arg^9]-bradykinin were serially diluted in RIA buffer and measured by RIA to determine the cross-reactivities among these closely related peptides."}, "[3]": {"tested_on": "polyclonal antiserum for [Arg^0]-BK", "experiment": "Radioimmunoassay (RIA) for [Arg^0, Trp^5, Leu^8]-bradykinin", "type": "binding, rabbit", "conditions": "for crossreactivity in the RIA: relative to [Arg^0]-BK standard, peptides serially diluted in RIA buffer, antiserum 1:10,000, 4 °C, 24 h", "protocol": "[Arg^0, Trp^5, Leu^8]-bradykinin ([Arg^0]-BK: RRPPGWSPLR) was synthesized by Phoenix Pharmaceuticals Inc. (Burlingame, CA, USA). [Arg^0]-BK was N-terminally conjugated to thyroglobulin by the glutaraldehyde method. Briefly, 5 mg thyroglobulin was mixed with 1 mg [Arg^0]-BK in 4 mL PBS (pH 7.0) and glutaraldehyde was added to a final concentration of 0.05 %. The mixture was incubated at 25 °C for 1 h with gentle agitation and reaction was stopped by addition of 0.1 mL ethanolamine. The mixture was dialyzed against 1 L PBS overnight at 4 °C and protein concentration was determined. For each injection, 0.2 mg conjugated protein was used and three rabbits were first immunized with the conjugated protein in Freund’s complete adjuvant followed by two booster immunogen injections in Freund’s incomplete adjuvant. The interval between injections was 4 weeks and the rabbits were sacrificed for final bleeds 3 weeks after the third immunization.\nSynthetic [Tyr^-1, Arg^0, Trp^5, Leu^8]-bradykinin (YRRPPGWSPLR) was radiolabeled by ^125I using the lactoperoxidase method and the iodinated peptide was purified by an HPLC system. The ^125I-BK was diluted in RIA buffer containing 0.1% RIA-grade bovine serum albumin to produce ~10,000 cpm per assay tube. The titers of the antiserum were determined by serial dilution and maximum binding was adjusted at 20 % of the total binding. […] Unbound fractions were removed by aspiration and specific binding in the pellet was measured using a gamma counter (Perkin Elmer, MA, USA). […]\nas §1"}}, "note": "Entries after “also recorded” stand apart in the source; their conditions may differ."}
{"substance": "RRPPGWSPLR [[Arg^0]-BK, [Arg^0, Trp^5, Leu^8]-bradykinin, synthetic teleost decapeptide kinin, […], from Phoenix Pharmaceuticals]", "values": [{"measurement": "potency in eliciting cardiovascular and antidipsogenic effects", "setting": "eel", "result": "more potent than BK"}, {"measurement": "integrity of spiked [Arg^0]-BK in plasma (conversion to BK)", "setting": "[1]", "result": "remained as a single ir-peak; also recorded: remained intact"}, {"measurement": "ir-[Arg^0]-BK content after incubation in plasma", "setting": "[2]", "result": "did not alter the peptide contents; also recorded: not statistically different among various time points"}, {"measurement": "EC50", "setting": "[3]; displacement of 125I-[Tyr^-1, Arg^0, Trp^5, Leu^8]-bradykinin tracer, antiserum 1:10,000, 4 °C for 24 h, gamma counter, measurements in duplicate", "result": 550, "unit": "pM"}]}
{"substance": "[Arg^0, Trp^5, des-Leu^8, des-Arg^9]-bradykinin [[Arg^0, Trp^5, des-Leu^8, des-Arg^9]-BK]", "values": [{"measurement": "crossreactivity in the RIA", "setting": "[3]", "result": "negligible crossreactivity"}]}
{"substance": "[Trp^5, Leu^8]-BK", "values": [{"measurement": "crossreactivity in the RIA", "setting": "[3]", "result": 71.3, "unit": "%"}]}
